In assay [1] the target is T1, 5-hydroxytryptamine receptor 2B (Homo sapiens, UniProt P41595). Kind of assay: Displacement of [3H]LSD from human cloned 5HT2B receptor expressed in CHO cells by liquid scintillation counting. The class given is cell-based. (Loss of bound radioactivity is the signal in a displacement assay; it reports binding, not function.)
Assay [2] addresses T1, 5-hydroxytryptamine receptor 2B. Put plainly: Agonist at human 5HT2B receptor expressed in HEK293 cells assessed as induction of calcium influx by FLIPR assay. The class given is functional, cell-based.

Molecules are shown by their SMILES.

By Ki is commonly meant a measure of affinity in units of concentration, obtained from inhibition or displacement. Lower therefore signals higher affinity. One may read the EC50 as the midpoint of the concentration-response curve.

T1 sequence (P41595 whole entry): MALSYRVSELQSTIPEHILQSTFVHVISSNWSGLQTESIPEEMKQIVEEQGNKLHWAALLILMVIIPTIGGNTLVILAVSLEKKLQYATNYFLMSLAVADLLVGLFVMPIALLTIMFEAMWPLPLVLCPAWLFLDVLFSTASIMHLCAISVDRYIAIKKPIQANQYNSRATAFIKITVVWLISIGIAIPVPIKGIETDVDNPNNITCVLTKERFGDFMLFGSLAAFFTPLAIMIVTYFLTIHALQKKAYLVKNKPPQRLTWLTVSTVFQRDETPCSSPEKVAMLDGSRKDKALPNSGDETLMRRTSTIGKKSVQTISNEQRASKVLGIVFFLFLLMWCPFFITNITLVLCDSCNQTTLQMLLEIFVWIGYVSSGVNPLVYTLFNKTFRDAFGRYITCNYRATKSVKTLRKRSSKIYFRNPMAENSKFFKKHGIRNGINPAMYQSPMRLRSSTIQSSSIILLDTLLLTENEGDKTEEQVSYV

`NC(=O)N1c2ccccc2CC(O)c2ccccc21` (centres undefined) [LICARBAZEPINE] gave an inhibition constant Ki in assay [1] of over 10000 nM.
The same measure, in the same setting: the same measure for `CC(NCCC(c1ccccc1)c1ccccc1)c1ccccc1` (centres undefined) [FENDILINE]: 3220 nM; for `COc1ccc2[nH]c3c(c2c1)CCNC3C` (centres undefined) [ADRENOGLOMERULOTROPIN]: 491 nM.
With `CC[C@@H](CO)NC(=O)[C@@H]1C=C2c3cccc4[nH]cc(c34)C[C@H]2N(C)C1` [METHYLERGONOVINE], the EC50 in assay [2] was 21.4 nM. This molecule also had a Ki in assay [1] of 0.8 nM.
On to `COc1ccc2[nH]cc(CN)c2c1`, for which the Ki in assay [1] turned out to be 1620 nM.
The same measure, in the same setting: the same measure for `COc1cc2c(CCNC(C)=O)c[nH]c2cc1F`: 2500 nM.
The same measure, in the same setting: the same measure for `Fc1ccc(N2CCN(CCC3OCCc4ccccc43)CC2)cc1` (centres undefined): 69.6 nM; for `Cn1ccc2cc3c(cc21)CCN3C(=O)Nc1cccnc1`: 4.3 nM.

The values above are taken from ChEMBL document CHEMBL1275376, “Development, validation, and use of quantitative structure-activity relationship models of 5-hydroxytryptamine (2B) receptor ligands to identify novel receptor binders and putative valvulopathic compounds among common drugs” (J Med Chem, 2010).
